The values that follow come from patent US8466311B2, “Neuroprotective compositions and methods” (Sanford-Burnham Medical Research Institute, priority 2006, dated 2013).

For one data set, the system named is PC12h cells. Briefly: Oxidative glutamate toxicity in PC12h cells (MTT assay). Format: cell-based.
The test system of a further data set is GSH. Briefly: Total GSH levels in cortical cultures. It counts as cell-based. The following applies: NEM. As to the method: Cell cultures, transfection, and glutathione (GSH) measurement. […] Transfection was performed with Lipofectamine 2000 (Invitrogen). In the reporter gene assays, firefly luciferase activity in cell lysates was measured with a luminometer (Promega). Total GSH (reduced and oxidized) was determined as described (Lee et al., Biochem. Biophys. Res. Commun. 280:286-292, 2001).
One caveat to the mechanism of NEPP and other electrophilic compounds acting at the level of Keap1 to induce HO-1 transcription is that NEPP could potentially react indiscriminately with other thiol-containing compounds in cells. To approach this question, we assessed cellular glutathione (GSH) levels to determine whether NEPP11 would affect this abundant antioxidant thiol. Nepp11 or N-ethylmaleimide (NEM) was added at t=0 and levels of total GSH were measured at the indicated times. GSH content of control cortical cultures (set arbitrarily at 100%) was 46.8±4.5 nmol/mg protein. […] In fact, this scenario seems likely, because the Keap1/Nrf2 pathway regulates the expression of γ-GCL in addition to HO-1 (Itoh et al., Mol. Cell. Biol. 24:36-45, 2004). […]
Transfections were performed with Lipofectamine 2000 (Invitrogen), and firefly luciferase activity in cell lysates was measured with a luminometer in the reporter gene assays (Promega).

In the next data set the test system is cerebrocortical neurons. Briefly: NMDA-induced neuronal cell death (excitotoxicity) in cerebrocortical cultures. As to conditions: ZnPP 10 μM added simultaneously with NEPP11.
Data set [1] addresses T1, Keap1 (Mus musculus, UniProt Q9Z2X8).
T1 construct: expressed in transfected cells; host or cells: COS7 cells
Briefly: Binding of CAB/CA to Keap1 and Keap1 deletion mutants (streptavidin precipitation). As to conditions: COS7 cells, HA-WT Keap1, 10 μM CAB. As to the method: (§1) (3) Expression vectors for HA-tagged Keap1 and Keap1 deletion mutants. These constructs were obtained from Dr. Akira Kobayashi of Tohoku University (Hosoya et al., J. Biol. Chem. 29:27244-27250, 2006; Kobayashi et al., Mol. Cell. Biol. 26:221-229, 2006).
(§2) Immunoprecipitation with agarose-immobilized streptavidin or antibody. PC12h cells (CAB- or vehicle-treated) were lysed in RIPA buffer supplemented with protease inhibitor cocktail. The lysates were centrifuged at 15,000 rpm for 10 min at 4° C., after which the supernatants were incubated with agarose-immobilized streptavidin at 4° C. for 1 h. Alternatively, for immunoprecipitation with anti-Keap1, the cell lysates were incubated with the antibody at 4° C. overnight, after which protein A immobilized on Sepharose CL-4B was added and incubation continued at 4° C. for 1 h. Then, the complexes were washed three times with rinse buffer (150 mM NaCl, 50 mM Tris-HCl [pH 7.5], 0.1% NP-40, 1 mM EDTA, and 0.02% NaN3). SDS sample buffer was added, the mixture was boiled for 5 min, and the supernatants were subjected to SDS-PAGE. Immunoblotting was then performed as described above.
(§3) CA activates the Keap1/Nrf2/ARE pathway. […] The initial reaction in this activation cascade is the binding of an electrophilic compound to specific cysteines on Keap1 protein (Hong et al., Chem. Res. Toxicol. 18: 1917-1926, 2005; Eggler et al., Proc. Nat. Acad. Sci. USA 102:10070-10075, 2005; Zhang et al., Mol. Cell. Biol. 10941-10953, 2004). Such binding initiates a cellular transcription pathway leading to induction of phase 2 enzymes (Talalay, Biofactors 12:5-11, 2000; Padmanabham et al., Mol. Cell 21:689-700, 2006; Itoh et al., Free Radic. Biol. Med. 36:1208-1213, 2004). Therefore, we examined the domains of Keap1 (designated BTB, IVR, and DGR) to determine those essential for binding to CA. Accordingly, for co-immunoprecipitation experiments, we transfected COS7 cells with DNA expressing either HA-tagged wild type Keap1 protein (HA-WT Keap1) or various deletion mutants of tagged Keap1 protein (HA-ΔBTB Keap1, HA-ΔIVR Keap1, and HA-ΔDGR Keap1). The transfected COS7 cells were then treated with vehicle or 10 μM CAB and lysed. We quantified the expression level of Keap1 protein in total cell lysates with anti-HA antibody. Each Keap1 mutant protein was expressed at a similar level of the predicted molecular weight (57 kDa for HA-ΔBTB Keap1, 53 kDa for HA-ΔIVR Keap1, and 37 kDa for HA-ΔDGR Keap1). Next, in order to detect Keap1/CAB complexes, we immunoprecipitated cell lysates with streptavidin and probed with anti-HA antibody. […] The requirement of the BTB domain for CA binding is in accord with prior results (Hong et al., Chem. Res. Toxicol. 18:1917-1926, 2005; Eggler et al., Proc. Nat. Acad. Sci. USA 102:10070-10075, 2005; Zhang et al., Mol. Cell. Biol. 24:10941-10953, 2004).
(§4) After binding of the electrophilic quinone-form of CA to Keap1 protein, activation of the Keap1/Nrf2 pathway requires nuclear translocation of Nrf2 (Talalay, Biofactors 12:5-11, 2000; Padmanabham et al., Mol. Cell 21:689-700, 2006; Itoh et al., Free Radic. Biol. Med. 36:1208-1213, 2004). Thus, we next examined the intracellular distribution of Nrf2 protein in COS7 cells by immunofluorescence.

Data set [2] has as its system Keap1. The data set is described as above. The following applies: COS7 cells, 10 μM CAB. As to the method:
as §1, §2, §3, §4

The next data set deals with ARE. As to the kind of experiment: ARE(GSTYa)-luciferase reporter in PC12h cells. It counts as cell-based. As to the method:
(1) pGL3-GSTYa ARE core-luciferase vector. […] The dsDNA thus obtained was inserted into the Mlu l and Bglll sites of the pGL3-promoter vector (Promega Co., Madison, Wis.).
Transient transfection and measurement of luciferase activity. PC12h cells or cerebrocortical cultures (E17, DIV21) were incubated for 5 h in EBSS containing 1 μg of a plasmid DNA plus Lipofectamine 2000 (Invitrogen, Carlsbad, Calif.). Transfection efficiency was normalized to β-galactosidase activity expressed by co-transfection with pSV-β-gal (Promega). For reporter gene assays, cells were transfected with 1 μg of the reporter construct [ARE(GSTYa)-luciferase] and 0.2 μg pSV-β-gal for 1 hour. […] Firefly luciferase activity and β-galactosidase activity in cell lysates were measured using a Luciferase System and β-Galactosidase Enzyme Assay System, respectively (Promega, Madison, Wis.).
Next, we examined the involvement of the Keap1/Nrf2 pathway more precisely by studying activation of the ARE. This transcription element responds to the Keap1/Nrf2 pathway; we monitored activation of the ARE by performing luciferase reporter gene assays using PC12h cells transfected with ARE(GSTYa)-luciferase (Alam et al., J. Biol. Chem. 274:26071-26077, 1999) in the presence or absence of an Nrf2 dominant-negative (DN) or Keap1 expression vector.

For data set [3], the system named is mixed neuronal/glial cortical cultures. Briefly: Site of accumulation of biotin-labeled compound in mixed neuronal/glial cortical cultures. It counts as cell-based, rat. As to conditions: E17 DIV21. As to the method:
Activation of the Keap1/Nrf2 pathway in Primary Cortical Cultures. To begin to test the effects of NEPP compounds on primary cerebrocortical neurons, we treated mixed neuronal/glial cortical cultures with NEPP6-biotin and then fixed and stained with rhodamine conjugated to streptavidin to determine the site of NEPP accumulation. Cortical cultures treated with NEPP6-biotin (10 μM) were stained with anti-MAP-2 monoclonal and rhodamine-conjugated streptavidin antibodies and with Hoechst 33,258 dye.
Immunocytochemistry. Cultures were fixed with 3% paraformaldehyde at room temperature for 20 min. After three washes in PBS, the cells were permeabilized with 0.3% Triton X-100 for 5 min. After three additional washes in PBS, the cells were incubated at 4° C. overnight with primary antibodies. They were then washed three times in PBS containing 0.2% Tween 20 (PBS-T), and next incubated with secondary antibodies for 1 h at room temperature. Thereafter, the cells were again washed, and their nuclei stained with Hoechst 33,258 (5 μg/ml) or with DAPI (1 μg/ml) for 5 min. Stained preparations were mounted and examined by epifluorescence microscopy. The following primary antibodies were used: anti-Nrf2 antibody, anti-MAP2 and anti-NeuN antibodies to identify neurons (dendrites and nuclei, respectively), and anti-S100β antibody to identify astrocytes. […]

Data set [4] has as its target T2, bovine serum albumin (BSA) (Bos taurus, UniProt P02769).
T2 construct: purchased WAKO Chemicals Inc. (Tokyo, Japan) or Sigma (St. Louis, Mo.)
Briefly: Adduct formation with free cysteine of BSA (streptavidin blot). As to conditions: PBS, room temperature, 5 h, streptavidin probe. It counts as binding.
Protocol: We tested whether the free cysteine of bovine serum albumin (BSA) could form an adduct with NEPP compounds. If carbon #11 on the NEPP compounds binds to this free cysteine of BSA, then pretreatment with N-ethylmaleimide (NEM), in irreversible thiol alkylating agent, would abolish this binding. […] With streptavidin as a probe, we could then detect proteins bound to NEPP6-biotin. In order to study thiols as targets of NEPP binding, BSA (1 μg per lane) was incubated with various concentrations (0-1000 μM) of N-ethylmaleimide (NEM) for 30 minutes at room temperature. Vehicle or NEPP6-biotin (10 μM) in phosphate-buffered saline (PBS) was added and the mixture was incubated at room temperature for 5 h, subjected to sodium dodecyl sulfate polyacrylamide gel electrophoresis (SDS-PAGE), and probed with peroxidase-conjugated streptavidin. The gel was also stained with Coomassie brilliant blue.

T2 sequence (P02769 25-607): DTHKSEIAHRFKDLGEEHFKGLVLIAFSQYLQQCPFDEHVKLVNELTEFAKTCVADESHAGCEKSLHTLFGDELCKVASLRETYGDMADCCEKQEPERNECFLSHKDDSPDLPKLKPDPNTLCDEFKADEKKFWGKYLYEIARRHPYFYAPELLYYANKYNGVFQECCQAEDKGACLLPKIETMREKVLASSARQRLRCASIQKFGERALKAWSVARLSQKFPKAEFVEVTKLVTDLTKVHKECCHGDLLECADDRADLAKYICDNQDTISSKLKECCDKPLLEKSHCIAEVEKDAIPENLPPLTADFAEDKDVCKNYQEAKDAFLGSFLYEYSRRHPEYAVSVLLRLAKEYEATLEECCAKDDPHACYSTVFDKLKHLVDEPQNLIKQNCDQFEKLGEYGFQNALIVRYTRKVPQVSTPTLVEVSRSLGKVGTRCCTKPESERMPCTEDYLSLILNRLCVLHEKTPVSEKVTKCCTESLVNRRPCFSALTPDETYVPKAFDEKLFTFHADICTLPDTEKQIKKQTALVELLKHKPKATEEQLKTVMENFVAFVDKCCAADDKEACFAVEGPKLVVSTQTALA
T1 sequence (Q9Z2X8 whole entry): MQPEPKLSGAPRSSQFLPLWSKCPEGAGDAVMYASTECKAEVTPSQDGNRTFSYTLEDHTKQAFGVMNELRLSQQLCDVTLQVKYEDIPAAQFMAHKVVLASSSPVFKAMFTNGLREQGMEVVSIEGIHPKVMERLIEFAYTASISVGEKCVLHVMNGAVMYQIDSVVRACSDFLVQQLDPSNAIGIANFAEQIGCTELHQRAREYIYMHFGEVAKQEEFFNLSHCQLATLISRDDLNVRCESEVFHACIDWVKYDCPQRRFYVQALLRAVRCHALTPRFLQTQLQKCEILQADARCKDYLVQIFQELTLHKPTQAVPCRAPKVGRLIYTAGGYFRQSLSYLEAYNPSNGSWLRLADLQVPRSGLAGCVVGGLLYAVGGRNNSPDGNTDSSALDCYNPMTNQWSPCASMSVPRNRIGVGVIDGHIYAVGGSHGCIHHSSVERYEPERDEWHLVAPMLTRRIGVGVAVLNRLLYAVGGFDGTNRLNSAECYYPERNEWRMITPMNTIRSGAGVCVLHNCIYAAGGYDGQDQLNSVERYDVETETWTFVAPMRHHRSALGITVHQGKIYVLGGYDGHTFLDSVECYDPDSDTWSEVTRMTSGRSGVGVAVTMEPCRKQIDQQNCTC
Protocol for cerebrocortical neurons: We stained the cultures with both anti-MAP-2 and anti-NeuN monoclonal antibodies to label neuronal dendrites and nuclei, respectively. Vehicle or NEPP11 (0.7 μM) was added to cerebrocortical cultures (E17 and DIV14-21) 60 min before treatment with NMDA (50 μM) for 15 min. The cultures were then incubated for 20 h and subsequently stained with anti-MAP-2 and anti-NeuN and with Hoechst dye. Apoptotic nuclei were identified by morphological changes seen with Hoechst staining. […] We also added zinc protoporphyrin (ZnPP, 10 μM), a relatively specific HO-1 antagonist, simultaneously with NEPP11. The number of apoptotic neurons was assessed by determining the apoptotic index [(number of condensed nuclei in MAP-2 or NeuN-positive cells)/(number of total MAP-2 or NeuN-positive cells)×100%], as reported by Bonfoco et al. (Proc. Natl. Acad. Sci. USA 92:7162-7166, 1995).
Cerebrocortical cultures were prepared from embryonic day-17 Sprague-Dawley rats and used at day 14-21 in vitro (DIV14-21), as described (Bonfoco et al., Proc. Natl. Acad. Sci. USA 92:7162-7166, 1995). To induce predominantly neuronal apoptosis (rather than necrosis), we exposed cortical cultures to 50 mM NMDA plus 5 mM glycine/1.8 mM CaCl2 in nominally Mg^2+-free Earle's balanced salt solution for 15 min (Bonfoco et al., Proc. Natl. Acad. Sci. USA 92:7162-7166, 1995). After exposure to NMDA, the cultures were returned to normal medium containing vehicle or NEPP11 and incubated for 20 hr before analyzing cell survival. To assess the ability of NEPP compounds to block NMDA-induced neuronal apoptosis, we identified apoptotic neurons by double immunofluorescence with anti-NeuN and anti-MAP-2 to specifically label neurons and with Hoechst staining for nuclear morphology to detect apoptosis. The percentage of neurons and non-neuronal cells in our cultures was 33.6±4.9% and 66.4±4.4% (n=4), respectively.
In addition, we used mature cortical cultures (E17, DIV21) to assess excitotoxicity because functional NMDA receptors are expressed on these neurons.

With `C[S+]([O-])CCCCN=C=S` (stereo not shown) [sulforaphane, reference compound], in the data set on PC12h cells, the “protection of PC12h cells against oxidative glutamate toxicity” value is recorded as “did not protect”.
For `CCN1C(=O)C=CC1=O` [NEM, N-ethylmaleimide, reference compound], the “outcome for neurons in cortical cultures” value with GSH was “neuronal death after 24 h”.
`C=CC1=C(C)c2cc3[n-]c(cc4nc(cc5[n-]c(cc1n2)c(C)c5C=C)C(C)=C4CCC(=O)O)c(CCC(=O)O)c3C.[Zn+2]` [ZnPP, zinc protoporphyrin, reference compound]: in the data set on cerebrocortical neurons, the “effect of HO-1 antagonist on neuroprotection by NEPP11” value is recorded as “abrogated the neuroprotective effect of NEPP11”.
In the case of `CC(C)c1cc2c(c(O)c1O)C1(C(=O)NCCCCCNC(=O)CCCCC3SCC4NC(=O)NC43)CCCC(C)(C)C1CC2` (stereo not shown) [CAB], the “level required to protect PC12h cells, relative to CA” value in the data set on PC12h cells is listed as “a greater level of CAB than CA was required”. Further, the “binding to Keap1-WT (73-kDa protein)” value on Keap1 [1] is listed as “observed in cells treated with CAB”. Also, in the data set with Keap1 [2], the “binding to IVR Keap1” value was “very little binding”, the “binding to ΔBTB Keap1” value was “no binding at all” and the “binding to ΔDGR Keap1” value is recorded as “strong binding”. For the same compound, the “ARE activation relative to CA” value in the data set on ARE (20 μM CAB versus 10 μM CA) is on record as “to a much lesser extent”. Moreover, in the data set with ARE (PC12h cells, CAB), the “activation of the ARE” value is given as “significantly activated the ARE”. Besides, in data set [3] (CAB 3 μM), the “site of accumulation at low concentration” value is “non-neuronal cells were strongly positive”. Further, in data set [3] (CAB 10 μM), the “site of accumulation at higher concentration” value is given as “neurons were also labeled”. In addition, in data set [4], the “adduct formation with BSA” value was “a single band (68 kDa) corresponding to the complex of BSA and CAB was detected”.
